Assay results as given in ChEMBL document CHEMBL4359888, “Discovery of aryl-substituted indole and indoline derivatives as RORγt agonists” (Eur J Med Chem, 2019).
pEC50: −log10 of the molar value. ≈ marks a conversion by molar mass, not a printed value.

Tests used:
[1] = Metabolic stability in mouse liver microsomes assessed as half life of compound at 1 uM and measured for 60 mins in presence of NADPH by HPLC-MS/MS analysis; type: ADME, Microsome
[2] = biological target: T1, Nuclear receptor ROR-gamma (Homo sapiens, UniProt P51449); assay: Agonist activity at APC-labeled biotinylated RORgammaT LBD (unknown origin) assessed as induction of biotinylated SRC-1 peptide recruitment incubated for 1 hr by dual FRET assay
T1 sequence (P51449 whole entry): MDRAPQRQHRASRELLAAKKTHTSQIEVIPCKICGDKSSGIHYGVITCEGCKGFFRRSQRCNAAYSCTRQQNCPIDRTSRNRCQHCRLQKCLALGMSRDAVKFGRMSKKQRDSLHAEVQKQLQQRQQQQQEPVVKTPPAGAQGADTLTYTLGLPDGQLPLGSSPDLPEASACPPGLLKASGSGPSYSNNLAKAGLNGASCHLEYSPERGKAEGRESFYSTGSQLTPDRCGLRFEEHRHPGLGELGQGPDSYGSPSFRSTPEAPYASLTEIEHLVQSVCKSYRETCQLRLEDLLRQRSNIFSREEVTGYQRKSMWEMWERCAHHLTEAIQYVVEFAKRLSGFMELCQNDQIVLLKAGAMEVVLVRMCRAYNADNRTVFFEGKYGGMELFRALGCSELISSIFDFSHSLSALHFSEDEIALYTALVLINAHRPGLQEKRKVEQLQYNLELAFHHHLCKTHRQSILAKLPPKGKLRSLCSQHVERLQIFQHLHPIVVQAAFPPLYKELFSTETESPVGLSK

[3] = biological target: T1, Nuclear receptor ROR-gamma; assay: Transactivation of human GAL4-fused RORgammaT LBD expressed in human HEK293T cells incubated for 16 to 20 hrs by steady-glo luciferase assay; type: cell-based
[4] = in vitro; conditions: mouse, liver microsomes
[5] = physchem; conditions: phosphate buffer, pH 7.46
[6] = Half life in CD-1 mouse at 5 mg/kg, po measured for 24 hrs by LC-MS/MS analysis; type: ADME, organism-based; conditions: in vivo
[7] = Half life in CD-1 mouse at 1 mg/kg, iv measured for 24 hrs by LC-MS/MS analysis; type: ADME, organism-based; conditions: in vivo
[8] = AUC (0 to last) in CD-1 mouse at 5 mg/kg, po measured for 24 hrs by LC-MS/MS analysis; type: ADME, organism-based; set-up: dose 5 mg/kg, route oral, time 0 - last; conditions: in vivo
[9] = AUC (0 to last) in CD-1 mouse at 1 mg/kg, iv measured for 24 hrs by LC-MS/MS analysis; type: ADME, organism-based; set-up: dose 1 mg/kg, route intravenous, time 0 - last; conditions: in vivo
[10] = Volume of distribution at steady state in CD-1 mouse at 1 mg/kg, iv measured for 24 hrs by LC-MS/MS analysis; type: ADME, organism-based; conditions: in vivo, read-out: Vdss
[11] = Oral bioavailability in CD-1 mouse at 5 mg/kg measured for 24 hrs by LC-MS/MS analysis; type: ADME, organism-based; conditions: in vivo
[12] = Clearance in CD-1 mouse at 1 mg/kg, iv measured for 24 hrs by LC-MS/MS analysis; type: ADME, organism-based; conditions: in vivo
[13] = Cmax in CD-1 mouse at 1 mg/kg, iv measured for 24 hrs by LC-MS/MS analysis; type: ADME, organism-based; set-up: dose 1 mg/kg, route intravenous; conditions: in vivo
[14] = Cmax in CD-1 mouse at 5 mg/kg, po measured for 24 hrs by LC-MS/MS analysis; type: ADME, organism-based; set-up: dose 5 mg/kg, route oral; conditions: in vivo

Row | SMILES | half-life at 1 µM [1] [min] | pEC50 [2] | other results
1 | O=C(O)CCc1cc2ccc(-c3cc(F)cc(OC(F)F)c3)cc2n1S(=O)(=O)c1cccc(C(F)(F)F)c1 | > 145 | 7.59 | pEC50 [3]: 5.77
2 | O=C(O)CCc1cn(S(=O)(=O)c2cccc(C(F)(F)F)c2)c2cc(-c3cc(F)cc(OC(F)F)c3)ccc12 | – | 7.36 | –
3 | O=C(O)CC1Cc2ccc(-c3cccc(OC(F)(F)F)c3)cc2N1S(=O)(=O)c1cccc(C(F)(F)F)c1 (stereo not drawn) | – | 7.51 | –
4 | O=S(=O)(c1cccc(C(F)(F)F)c1)n1ncc2ccc(-c3cc(F)cc(OC(F)F)c3)cc21 | – | 6.69 | –
5 | O=C(O)CC1Cc2ccc(-c3ccc4c(c3)OC(F)(F)O4)cc2N1S(=O)(=O)c1cccc(C(F)(F)F)c1 (stereo not drawn) | – | 7.37 | –
6 | O=C(CC1Cc2ccc(-c3cc(F)cc(OC(F)F)c3)cc2N1S(=O)(=O)c1cccc(C(F)(F)F)c1)N1CC(O)C1 (stereo not drawn) | – | 6.61 | –
7 | O=C(O)CC1Cc2ccc(-c3ccc4c(c3)OCO4)cc2N1S(=O)(=O)c1cccc(C(F)(F)F)c1 (stereo not drawn) | – | 7.06 | –
8 | O=S(=O)(c1cccc(C(F)(F)F)c1)N1CCc2ccc(-c3cc(F)cc(OC(F)F)c3)cc21 | 11.4 | 7.30 | microsomal CLint at 1 h, 1 µM [4]: 121 µL/min/mg; solubility kinetic at 2 h, 100 µM [5]: 1.48 µM (≈ 0.721 µg/mL)
9 | COc1cc(F)cc(-c2ccc3c(c2)N(S(=O)(=O)c2cccc(C(F)(F)F)c2)C(CC(=O)O)C3)c1 (stereo not drawn) | – | 7.41 | –
10 | O=C(O)c1cc2ccc(-c3cc(F)cc(OC(F)F)c3)cc2n1S(=O)(=O)c1cccc(C(F)(F)F)c1 | – | 7.13 | –
11 | O=C(O)Cc1cn(S(=O)(=O)c2cccc(C(F)(F)F)c2)c2cc(-c3cc(F)cc(OC(F)F)c3)ccc12 | – | 6.88 | –
12 | O=C(CC1Cc2ccc(-c3cc(F)cc(OC(F)F)c3)cc2N1S(=O)(=O)c1cccc(C(F)(F)F)c1)N1CC2(COC2)C1 (stereo not drawn) | 0.7 | 7.32 | pEC50 [3]: 6.12
13 | O=C(O)CCCc1cc2ccc(-c3cc(F)cc(OC(F)F)c3)cc2n1S(=O)(=O)c1cccc(C(F)(F)F)c1 | – | 7.34 | –
14 | O=C(O)CC1Cc2ccc(-c3ccc4c(c3)CCO4)cc2N1S(=O)(=O)c1cccc(C(F)(F)F)c1 (stereo not drawn) | – | 7.25 | –
15 | O=C(O)CC1CN(S(=O)(=O)c2cccc(C(F)(F)F)c2)c2cc(-c3cc(F)cc(OC(F)F)c3)ccc21 (stereo not drawn) | 45.6 | 7.66 | –
16 | O=C(O)C[C@@H]1Cc2ccc(-c3cc(F)cc(OC(F)F)c3)cc2N1S(=O)(=O)c1cccc(C(F)(F)F)c1 | – | 7.79 | pEC50 [3]: 6.70
17 | CC(C)Oc1cc(F)cc(-c2ccc3c(c2)N(S(=O)(=O)c2cccc(C(F)(F)F)c2)C(CC(=O)O)C3)c1 (stereo not drawn) | – | 6.91 | –
18 | O=C(O)CCC1CN(S(=O)(=O)c2cccc(C(F)(F)F)c2)c2cc(-c3cc(F)cc(OC(F)F)c3)ccc21 (stereo not drawn) | 24.5 | 7.84 | –
19 | O=C(O)CCCc1cn(S(=O)(=O)c2cccc(C(F)(F)F)c2)c2cc(-c3cc(F)cc(OC(F)F)c3)ccc12 | – | 7.03 | –
20 | O=C1CCN(C(=O)CC2Cc3ccc(-c4cc(F)cc(OC(F)F)c4)cc3N2S(=O)(=O)c2cccc(C(F)(F)F)c2)C1 (stereo not drawn) | – | 7.28 | –
21 | O=C(CC1Cc2ccc(-c3cc(F)cc(OC(F)F)c3)cc2N1S(=O)(=O)c1cccc(C(F)(F)F)c1)N1CCOCC1 (stereo not drawn) | – | 6.68 | –
22 | O=S(=O)(c1cccc(C(F)(F)F)c1)n1ccc2ccc(-c3cc(F)cc(OC(F)F)c3)cc21 | 39.1 | 7.00 | –

Row | SMILES | half-life at 1 µM [1] [min] | pEC50 [2] | other results
23 | O=C(O)C[C@H]1Cc2ccc(-c3cc(F)cc(OC(F)F)c3)cc2N1S(=O)(=O)c1cccc(C(F)(F)F)c1 | – | 6.54 | –
24 | O=C(O)CC1Cc2ccc(-c3cc(F)cc(C(F)(F)F)c3)cc2N1S(=O)(=O)c1cccc(C(F)(F)F)c1 (stereo not drawn) | – | 7.38 | –
25 | O=C(O)CCC1Cc2ccc(-c3cc(F)cc(OC(F)F)c3)cc2N1S(=O)(=O)c1cccc(C(F)(F)F)c1 (stereo not drawn) | 60.9 | 7.50 | pEC50 [3]: 5.63
26 | O=C1CN(C(=O)CC2Cc3ccc(-c4cc(F)cc(OC(F)F)c4)cc3N2S(=O)(=O)c2cccc(C(F)(F)F)c2)C1 (stereo not drawn) | – | 7.10 | –
27 | O=C(CC1Cc2ccc(-c3cc(F)cc(OC(F)F)c3)cc2N1S(=O)(=O)c1cccc(C(F)(F)F)c1)N1CCC(O)CC1 (stereo not drawn) | 0.7 | 6.97 | pEC50 [3]: 5.22
28 | O=C(O)Cc1cc2ccc(-c3cc(F)cc(OC(F)F)c3)cc2n1S(=O)(=O)c1cccc(C(F)(F)F)c1 | – | 6.90 | –
29 | O=C(O)CCCC1CN(S(=O)(=O)c2cccc(C(F)(F)F)c2)c2cc(-c3cc(F)cc(OC(F)F)c3)ccc21 (stereo not drawn) | 34.2 | 7.58 | –
30 | O=C(O)C1CCN(C(=O)CC2Cc3ccc(-c4cc(F)cc(OC(F)F)c4)cc3N2S(=O)(=O)c2cccc(C(F)(F)F)c2)CC1 (stereo not drawn) | 30.1 | 7.24 | pEC50 [3]: 5.26
31 | O=C1CCN(C(=O)CC2Cc3ccc(-c4cc(F)cc(OC(F)F)c4)cc3N2S(=O)(=O)c2cccc(C(F)(F)F)c2)CC1 (stereo not drawn) | – | 7.09 | –
32 | O=C(CC1Cc2ccc(-c3cc(F)cc(OC(F)F)c3)cc2N1S(=O)(=O)c1cccc(C(F)(F)F)c1)N1CCS(=O)(=O)CC1 (stereo not drawn) | 2 | 7.36 | pEC50 [3]: 6.49
33 | O=S(=O)(c1cccc(C(F)(F)F)c1)N1CCc2ccc(OCc3c(F)cccc3Cl)cc21 | 2.9 | 7.52 | microsomal CLint at 1 h, 1 µM [4]: 482 µL/min/mg; solubility kinetic at 2 h, 100 µM [5]: 0.08 µM (≈ 0.0389 µg/mL)
34 | O=C(O)CCCC1Cc2ccc(-c3cc(F)cc(OC(F)F)c3)cc2N1S(=O)(=O)c1cccc(C(F)(F)F)c1 (stereo not drawn) | 93.3 | 7.60 | pEC50 [3]: 6.37
35 | O=S(=O)(c1cccc(C(F)(F)F)c1)n1cnc2ccc(-c3cc(F)cc(OC(F)F)c3)cc21 | – | 6.91 | –
36 | CCOc1cc(F)cc(-c2ccc3c(c2)N(S(=O)(=O)c2cccc(C(F)(F)F)c2)C(CC(=O)O)C3)c1 (stereo not drawn) | – | 7.48 | –
37 | O=C(O)CC1Cc2ccc(-c3cc(F)cc(F)c3)cc2N1S(=O)(=O)c1cccc(C(F)(F)F)c1 (stereo not drawn) | – | 7.59 | –
38 | O=C(O)CC1Cc2ccc(-c3cc(F)cc(Cl)c3)cc2N1S(=O)(=O)c1cccc(C(F)(F)F)c1 (stereo not drawn) | – | 7.38 | –
39 | O=C(O)C1CN(C(=O)CC2Cc3ccc(-c4cc(F)cc(OC(F)F)c4)cc3N2S(=O)(=O)c2cccc(C(F)(F)F)c2)C1 (stereo not drawn) | 65.9 | 7.31 | pEC50 [3]: 5.39
40 | O=C(O)CC1Cc2ccc(-c3cc(F)cc(OC(F)F)c3)cc2N1S(=O)(=O)c1cccc(C(F)(F)F)c1 (racemic) | 113 | 7.68 | half-life [6]: 249 min; half-life [7]: 295 min; AUC(0-t) at 24 h [8]: 9120 ng·h/mL; AUC(0-t) at 24 h [9]: 1710 ng·h/mL; Vd [10]: 2.09 L/kg; bioavailability [11]: 107%; clearance [12]: 9.55 mL/min/kg; Cmax [13]: 1640 ng/mL; Cmax [14]: 1400 ng/mL; microsomal CLint at 1 h, 1 µM [4]: 12.3 µL/min/mg; pEC50 [3]: 6.61; solubility kinetic at 2 h, 100 µM [5]: 69.4 µM (≈ 37.9 µg/mL)
41 | CC(C)(C[C@H]1CN(S(=O)(=O)c2cccc(C(F)(F)F)c2)c2cc(-c3cc(F)cc(OC(F)F)c3)ccc2O1)C(=O)O [CINTIRORGON] | – | – | solubility kinetic at 2 h, 100 µM [5]: 37.5 µM (≈ 22.6 µg/mL)
42 | CC(=O)N1CCN(c2ccc(OCC3COC(Cn4ccnc4)(c4ccc(Cl)cc4Cl)O3)cc2)CC1 (stereo not drawn) [KETOCONAZOLE] | – | – | solubility kinetic at 2 h, 100 µM [5]: 31.1 µM (≈ 16.5 µg/mL)
43 | COC(=O)C1=C(C)NC(C)=C(C(=O)OCCN(C)Cc2ccccc2)C1c1cccc([N+](=O)[O-])c1 (stereo not drawn) [NICARDIPINE] | – | – | solubility kinetic at 2 h, 100 µM [5]: 5.01 µM (≈ 2.4 µg/mL)
